Literature values in patent publication US20070166273A1, “Skin treatment educational kit” (priority 2006, published 2007).

How the values were obtained:
[1] = test system: New Zealand White rabbits; conditions: New Zealand White rabbits (3.3 times max human systemic dose)
[2] = test system: human
[3] = test system: Wistar rats
[4] = test system: mouse; conditions: in vivo mouse micronucleus assay
[5] = test system: Wistar rats; conditions: orally or topically, Wistar rats (8 times max human systemic dose)
[6] = test system: mice; conditions: 0.025 mg/kg/day topically to mice (0.1 times max human systemic dose)
[7] = test system: hamsters; conditions: oral
[8] = test system: cynomolgus monkey
[9] = test system: pigmented mice; conditions: 0.05% tretinoin
[10] = test system: rats; conditions: dermal
[11] = test system: rats; conditions: oral, rats (16 times the human topical dose)
[12] = test system: mice; conditions: oral
[13] = test system: subhuman primates; conditions: oral
[14] = test system: CD-1 mice; conditions: 91-week dermal
[15] = test system: rats; conditions: oral, 2.5 mg/kg/day (20 times max human systemic dose)
[16] = test system: rats; conditions: oral
[17] = Ames assay
[18] = dermally applied, 1.0 mg/kg/day (8 times max human systemic dose)
[19] = test system: hairless albino mice; conditions: concurrent exposure
[20] = test system: rabbits; conditions: 0.5 mg/kg/day (8 times max human systemic dose)

CC1=C(/C=C/C(C)=C/C=C/C(C)=C/C(=O)O)C(C)(C)CCC1 [tretinoin, all-trans-retinoic acid]
dose with increased incidence of domed head and hydrocephaly [1]: greater than 0.2 mg/kg/day
reports describing holoprosencephaly ([2]; of the thirty human cases): five
human cases of temporally associated congenital malformations ([2]; two decades of clinical use): Thirty
anomalies: humerus bent ([3]; 10 mg/kg/day topically applied): 6%
anomalies: humerus short ([3]; 10 mg/kg/day topically applied): 13%
anomalies: os parietal incompletely ossified ([3]; 10 mg/kg/day topically applied): 14%
dose with evidence for teratogenicity (shortened or kinked tail) ([3]; topical, Wistar rats (8 times max human systemic dose)): greater than 1 mg/kg/day
mutagenic potential [4]: negative
teratogenic and fetotoxic dose [5]: greater than 1 mg/kg/day
carcinogenic potential [6]: no evidence of carcinogenic potential
teratogenicity [7]: teratogenic
dose with fetal malformations ([8]; cynomolgus monkey): ≥ 10 mg/kg/day
embryolethality and abortion ([8]; cynomolgus monkey): dose-related increase
dose at which no fetal malformations were observed ([8]; cynomolgus monkey (83 times max human systemic dose)): 5 mg/kg/day
skeletal variations ([8]; cynomolgus monkey, all doses): increased skeletal variations were observed at all doses
enhancement of photocarcinogenesis [9]: dark pigmentation did not overcome the enhancement of photocarcinogenesis
sperm count and motility ([10]; 0.5 mg/kg/day, rats (4 times max human systemic dose)): slight (not statistically significant) decreases
number and percent of nonviable embryos ([10]; females treated with 0.25 mg/kg/day and above (2 times max human systemic dose)): slight (not statistically significant) increases
dose with decreased survival of neonates and growth retardation [11]: > 2 mg/kg/day
teratogenicity [12]: teratogenic
teratogenicity [13]: teratogenic
cutaneous squamous cell carcinomas and papillomas in the treatment area ([14]; 0.017% and 0.035% formulations (max systemic 0.5 and 1.0 mg/kg/day), female CD-1 mice): observed in some female mice
liver tumors ([14]; 0.017% and 0.035% formulations, male CD-1 mice): dose-related incidence
fetotoxicity [15]: fetotoxic, resulting in skeletal variations and increased intrauterine death
teratogenicity [16]: teratogenic
mutagenic potential [17]: negative
fetotoxicity and teratogenicity [18]: may be fetotoxic, but not overly teratogenic
tumorigenic potential of carcinogenic doses of UVB and UVA light [19]: may enhance the tumorigenic potential
fetotoxicity and teratogenicity ([20]; dermally applied): may be fetotoxic, but not overly teratogenic
fetotoxicity ([20]; topical): fetotoxic
